Data reported in publication PMC3838859 (Biochemistry, 2013).

Legend:
[1] = biological target: PhnI (C-P lyase nucleosidase) (Escherichia coli, UniProt P16687); assay type: biochemical
[2] = system: Nc1ncnc2c1ncn2[C@@H]1O[C@H](COP(=O)(O)OP(=O)(O)OP(=O)(O)O)[C@@H](O)[C@H]1O; experiment: steady-state kinetics of the nucleosidase reaction; assay type: biochemical, Escherichia coli; conditions: Mg2+

Sequence of PhnI (C-P lyase nucleosidase) (P16687 whole entry): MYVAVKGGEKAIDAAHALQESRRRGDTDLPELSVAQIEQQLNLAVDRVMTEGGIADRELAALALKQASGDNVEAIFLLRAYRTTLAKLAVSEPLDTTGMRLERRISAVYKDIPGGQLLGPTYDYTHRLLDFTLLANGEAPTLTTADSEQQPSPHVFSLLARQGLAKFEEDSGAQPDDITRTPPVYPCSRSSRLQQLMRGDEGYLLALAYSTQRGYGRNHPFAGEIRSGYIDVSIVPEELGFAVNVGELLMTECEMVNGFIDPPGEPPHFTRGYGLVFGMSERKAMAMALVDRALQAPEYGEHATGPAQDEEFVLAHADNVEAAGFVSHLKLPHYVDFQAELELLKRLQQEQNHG

Kd [1] [nM] | Compound | Km [2] [µM]
20 ± 4 | Nc1ncnc2c([C@@H]3N[C@H](COP(=O)(O)OP(=O)(O)OP(=O)(O)O)[C@@H](O)[C@H]3O)c[nH]c12 [ImmA-TP, Immucillin-A triphosphate] | 
 | PhnI (C-P lyase nucleosidase) (Escherichia coli K-12) | 95 ± 12
